According to paper PMC12169608, “Peptidomimetic Phenoxymethyl Ketone Warheads as Potent Dual-Mode Inhibitors against SARS-CoV‑2 M^pro and Cathepsin” (Journal of Medicinal Chemistry, 2025):
In brackets after ≈: the same amount, converted by molar mass. Where two headings read alike, the source gives them in different places.

Tests used:
[1] = Mouse liver microsomal stability; details: microsomes, pH 7.4
[2] = molecular target: hamster CTSL (Mesocricetus auratus, UniProt Q812A7); assay: hamster CTSL biochemical assay
hamster CTSL, sequence (Q812A7 entry or part of it): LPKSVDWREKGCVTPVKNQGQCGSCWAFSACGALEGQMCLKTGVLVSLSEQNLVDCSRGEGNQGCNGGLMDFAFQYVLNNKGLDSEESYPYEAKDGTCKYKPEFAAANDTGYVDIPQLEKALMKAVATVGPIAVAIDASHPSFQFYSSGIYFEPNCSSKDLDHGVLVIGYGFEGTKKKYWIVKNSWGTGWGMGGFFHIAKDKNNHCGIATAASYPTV

[3] = molecular target: T1, Calpain-1 (Homo sapiens, UniProt P07384); assay: Protease panel: Calpain-1; type: biochemical
T1 construct: erythrocytes; tissue Eurofins Discovery (assay service); host or cells: human erythrocytes
T1 sequence (P07384 1-714): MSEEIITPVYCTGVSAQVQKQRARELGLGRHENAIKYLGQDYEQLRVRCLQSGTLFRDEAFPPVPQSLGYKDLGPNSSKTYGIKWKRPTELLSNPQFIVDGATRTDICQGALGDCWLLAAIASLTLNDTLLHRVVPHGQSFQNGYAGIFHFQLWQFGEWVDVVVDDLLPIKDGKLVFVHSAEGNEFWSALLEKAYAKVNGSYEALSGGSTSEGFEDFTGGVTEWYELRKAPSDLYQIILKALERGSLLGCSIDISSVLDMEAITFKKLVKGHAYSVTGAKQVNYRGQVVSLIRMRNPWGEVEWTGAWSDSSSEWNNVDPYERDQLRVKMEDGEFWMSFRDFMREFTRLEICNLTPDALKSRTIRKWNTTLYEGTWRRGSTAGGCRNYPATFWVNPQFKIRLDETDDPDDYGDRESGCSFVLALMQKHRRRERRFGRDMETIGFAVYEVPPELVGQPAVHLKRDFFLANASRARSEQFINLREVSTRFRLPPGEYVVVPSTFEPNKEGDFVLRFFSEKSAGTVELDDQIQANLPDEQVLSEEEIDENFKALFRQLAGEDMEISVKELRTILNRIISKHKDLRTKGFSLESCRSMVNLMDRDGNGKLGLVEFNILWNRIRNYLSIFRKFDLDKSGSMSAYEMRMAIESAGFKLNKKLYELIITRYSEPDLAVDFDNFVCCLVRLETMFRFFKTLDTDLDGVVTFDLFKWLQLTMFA
T1 sequence (P04632 1-268 partner): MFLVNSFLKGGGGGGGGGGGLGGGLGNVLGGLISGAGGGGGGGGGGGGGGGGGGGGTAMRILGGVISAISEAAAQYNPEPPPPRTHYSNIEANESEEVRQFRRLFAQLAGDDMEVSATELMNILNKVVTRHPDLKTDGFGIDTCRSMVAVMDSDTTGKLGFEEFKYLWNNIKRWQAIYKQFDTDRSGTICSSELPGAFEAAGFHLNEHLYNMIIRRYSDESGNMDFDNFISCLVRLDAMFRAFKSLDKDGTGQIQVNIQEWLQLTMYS

[4] = in vitro; details: mouse, plasma, mouse plasma protein binding
[5] = tested on: luciferase-expressing VSV (ΔG) pseudotyped with Spike from SARS-CoV-2; assay: microbe, parasite or virus in culture; type: cell-based
[6] = Hamster hepatocyte stability; details: cryopreserved hepatocytes, t1/2 (hamster hepatocytes), without ritonavir
[7] = in vitro; details: African green monkey
[8] = molecular target: mouse cathepsin L (mCTSL) (Mus musculus, UniProt P06797); assay: mCTSL biochemical assay
mouse cathepsin L (mCTSL), sequence (P06797 114-334): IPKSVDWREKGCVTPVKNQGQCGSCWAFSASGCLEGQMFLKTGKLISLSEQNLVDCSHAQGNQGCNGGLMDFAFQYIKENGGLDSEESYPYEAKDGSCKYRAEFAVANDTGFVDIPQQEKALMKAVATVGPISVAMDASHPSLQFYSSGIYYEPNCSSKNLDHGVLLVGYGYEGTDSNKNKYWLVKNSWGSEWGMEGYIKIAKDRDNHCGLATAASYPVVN

[9] = in vitro; details: mouse, microsomes, pH 7.4
[10] = tested on: trypsin; assay: Protease panel: trypsin
[11] = physchem; details: pH 7.4
[12] = physchem; details: pH 7.4; remark: listed apart in the source
[13] = molecular target: T2, Caspase 2 (Homo sapiens, UniProt P42575); assay: Protease panel: Caspase 2; type: biochemical
T2 construct: purchased Eurofins Discovery (assay service); host or cells: E. coli
T2 sequence (P42575 170-325 limits assumed): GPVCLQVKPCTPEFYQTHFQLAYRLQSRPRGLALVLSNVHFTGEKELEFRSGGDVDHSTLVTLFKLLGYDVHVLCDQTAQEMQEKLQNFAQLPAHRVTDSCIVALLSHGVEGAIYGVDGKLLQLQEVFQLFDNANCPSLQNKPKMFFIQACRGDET
T2 sequence (P42575 348-452 limits assumed): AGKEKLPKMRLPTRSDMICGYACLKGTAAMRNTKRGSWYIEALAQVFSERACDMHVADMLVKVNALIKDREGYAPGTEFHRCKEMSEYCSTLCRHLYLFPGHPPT

[14] = 3 h, 2 µM
[15] = in vitro; details: hamster, hepatocytes
[16] = molecular target: SARS-CoV-2 M^pro (Severe acute respiratory syndrome coronavirus 2, UniProt P0DTD1); assay: biochemical; type: biochemical
[17] = tested on: SARS-CoV-2; assay: microbe, parasite or virus in culture; type: cell-based; details: Severe acute respiratory syndrome coronavirus 2, Vero C1008, read-out: SARS-CoV-2 CPE reduction assay pEC50 (converted)
[18] = molecular target: T3, thrombin (Homo sapiens, UniProt P00734); assay: Protease panel: thrombin; type: biochemical
T3 construct: preincubated with thrombin (10 nM, Sigma); purchased Sigma-Aldrich

[19] = Mouse hepatocyte stability
[20] = in vitro; details: hamster, microsomes, pH 7.4
[21] = molecular target: T4, human cathepsin L (hCTSL) (Homo sapiens, UniProt P07711); assay: hCTSL biochemical assay
T4 construct: purchased R&D Systems
T4 sequence (P07711 114-333): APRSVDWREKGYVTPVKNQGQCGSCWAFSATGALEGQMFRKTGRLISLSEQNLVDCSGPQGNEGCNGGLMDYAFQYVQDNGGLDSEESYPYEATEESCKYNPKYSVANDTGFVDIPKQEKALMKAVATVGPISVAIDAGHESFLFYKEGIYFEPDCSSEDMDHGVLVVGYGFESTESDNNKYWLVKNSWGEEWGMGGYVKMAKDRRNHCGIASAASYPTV

[22] = molecular target: T5, Neutrophil Elastase 2 (Homo sapiens, UniProt P08246); assay: Protease panel: Neutrophil Elastase 2; type: biochemical
T5 construct: neutrophils; tissue Eurofins Discovery (assay service); host or cells: human neutrophils
T5 sequence (P08246 30-267): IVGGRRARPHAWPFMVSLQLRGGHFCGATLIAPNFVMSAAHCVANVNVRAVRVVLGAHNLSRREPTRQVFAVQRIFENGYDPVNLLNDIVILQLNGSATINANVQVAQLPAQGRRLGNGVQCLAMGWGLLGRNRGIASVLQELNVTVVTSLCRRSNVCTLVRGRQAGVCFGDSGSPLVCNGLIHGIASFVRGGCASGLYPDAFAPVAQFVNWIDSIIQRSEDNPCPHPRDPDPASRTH

[23] = in vitro; details: mouse, hepatocytes, CLint (mouse hepatocytes)
[24] = molecular target: T6, Cathepsin D (Homo sapiens, UniProt P07339); assay: Protease panel: Cathepsin D; type: biochemical
T6 construct: Human liver; tissue Eurofins Discovery (assay service); host or cells: human liver
T6 sequence (P07339 65-412): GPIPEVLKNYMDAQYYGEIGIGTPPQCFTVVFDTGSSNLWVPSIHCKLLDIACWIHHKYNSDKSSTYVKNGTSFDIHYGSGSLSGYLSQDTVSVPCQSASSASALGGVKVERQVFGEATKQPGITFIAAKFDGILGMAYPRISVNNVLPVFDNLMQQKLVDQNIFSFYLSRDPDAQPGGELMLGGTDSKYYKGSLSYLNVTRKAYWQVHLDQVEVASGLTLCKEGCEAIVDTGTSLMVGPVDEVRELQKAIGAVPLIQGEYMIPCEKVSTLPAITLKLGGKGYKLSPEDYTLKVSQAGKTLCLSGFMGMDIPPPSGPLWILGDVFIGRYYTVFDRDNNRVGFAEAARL

[25] = molecular target: human cathepsin B (hCTSB) (Homo sapiens, UniProt P07858); assay: hCTSB biochemical assay
[26] = Hamster liver microsomal stability; details: microsomes, pH 7.4
[27] = tested on: Vero E6 cells
[28] = pH 7.4
[29] = Kinetic solubility; details: PBS buffer pH 7.4
[30] = molecular target: mouse cathepsin B (mCTSB) (Mus musculus, UniProt P10605); assay: mCTSB biochemical assay
mouse cathepsin B (mCTSB), sequence (P10605 80-339): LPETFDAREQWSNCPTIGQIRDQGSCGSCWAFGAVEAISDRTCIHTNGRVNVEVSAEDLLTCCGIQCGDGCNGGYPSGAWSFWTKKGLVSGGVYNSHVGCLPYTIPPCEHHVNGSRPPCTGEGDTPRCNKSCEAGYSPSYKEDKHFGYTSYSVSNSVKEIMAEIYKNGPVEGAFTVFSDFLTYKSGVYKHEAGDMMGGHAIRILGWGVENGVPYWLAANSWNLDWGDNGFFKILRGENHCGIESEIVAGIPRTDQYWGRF

[31] = Plasma protein binding (ultra-centrifugation)

COc1cccc2[nH]c(C(=O)N[C@@H](Cc3cccc(F)c3)C(=O)N[C@@H](C[C@@H]3CCNC3=O)C(=O)COc3c(F)c(F)c(C(C)O)c(F)c3F)cc12 (stereo partly drawn) [compound 8, N-((2S)-3-(3-Fluorophenyl)-1-oxo-1-(((2S)-3-oxo-1-((S)-2-oxopyrrolidin-3-yl)-4-(2,3,5,6-tetrafluoro-4-(1-hydroxyethyl)phenoxy)butan-2-yl)amino)propan-2-yl)-4-methoxy-1H-indole-2-carboxamide]
half-life at 1 µM [1]: 1.28 min
pIC50 (hamster CTSL) [2]: 7.92 ± 0.18
inhibition at 10 µM [3]: 5%
fraction unbound at 3 h, 2 µM ([4]; fraction bound (Fb)): 0.0083
fraction unbound at 3 h, 2 µM ([4]; fraction unbound (Fu)): 0.0083
EC50 ([5]; Vesicular stomatitis virus, Vero C1008, read-out: Entry reporter assay pEC50 (converted)): 2880 nM
half-life at 2 h, 2 µM [6]: 20.9 min
CC50 [7]: > 1260 nM
IC50 ([8]; read-out: pIC50 (mouse CTSL) (converted)): 288 nM
microsomal CLint at 1 µM [9]: 1100 µL/min/mg
remaining at 1 h, 1 µM [9]: 0%
Trypsin inhibition at 10 μM [10]: 7.5 ± 4.9%
logD at 1 h [11]: 3.26
solubility kinetic at 24 h [12]: 12.3 µM (≈ 8.81 µg/mL)
inhibition at 10 µM [13]: 20%
mouse plasma protein binding, fraction bound (Fb) [14]: 99.17%
remaining at 2 h, 1 µM ([15]; % remaining at 120 min (hamster hepatocytes, compound/ritonavir 1:1)): 7.05%
remaining at 2 h, 1 µM ([15]; % remaining at 120 min (hamster hepatocytes, compound/ritonavir 2:1)): 2.78%
hepatocyte CLint at 2 h, 4 µM ([15]; CLint (hamster hepatocytes + ritonavir 4:1)): 29.7 µL/min/1e6 cells
hepatocyte CLint at 2 h, 2 µM ([15]; CLint (hamster hepatocytes)): 33.1 µL/min/1e6 cells
hepatocyte CLint at 1 µM ([15]; CLint (hamster hepatocytes, compound/ritonavir 1:1)): 22.6 µL/min/1e6 cells
hepatocyte CLint at 1 µM ([15]; CLint (hamster hepatocytes, compound/ritonavir 2:1)): 31.7 µL/min/1e6 cells
half-life at 2 h, 4 µM ([15]; t1/2 (hamster hepatocytes + ritonavir 4:1)): 23.3 min
half-life at 1 µM ([15]; t1/2 (hamster hepatocytes, compound/ritonavir 1:1)): 30.7 min
half-life at 1 µM ([15]; t1/2 (hamster hepatocytes, compound/ritonavir 2:1)): 21.9 min
IC50 ([16]; read-out: M^pro biochemical assay pIC50 (converted)): 5.62 nM
EC50 [17]: 158 nM
inhibition at 10 µM [18]: -0.2 ± 0.6%
half-life at 1 µM ([19]; mouse, cryopreserved hepatocytes): 26.9 min
microsomal CLint at 1 µM [20]: 1290 µL/min/mg
remaining at 1 h, 1 µM [20]: 0%
hCTSL biochemical assay pIC50 [21]: 7.34
inhibition at 10 µM [22]: 2%
hepatocyte CLint at 2 h, 2 µM [23]: 64.5 µL/min/1e6 cells
inhibition at 10 µM [24]: 9%
hCTSB biochemical assay pIC50 [25]: 5.73
half-life at 1 µM [26]: 1.08 min

N-((S)-3-(3-Fluorophenyl)-1-oxo-1-(((S)-2-oxo-5-(5-oxo-1,5-dihydro-4H-1,2,4-triazol-4-yl)-1-(2,3,5,6-tetrafluoro-4-(2-hydroxypropan-2-yl)phenoxy)pentan-3-yl)amino)propan-2-yl)-4-methoxy-1H-indole-2-carboxamide [compound 12]
pCC50 (CPE), cytotoxicity [27]: < 5.00
logD [28]: 2.88
kinetic solubility [29]: 5.84 µM
Entry reporter assay pEC50 [5]: 5.14
pIC50 (mouse CTSL) [8]: 7.66
pIC50 (mouse CTSB) [30]: > 8.16
M^pro biochemical assay pIC50 [16]: 6.75
CLint (mouse hepatocytes + ritonavir 4:1) ([19]; compound/ritonavir 4:1): 37.1 μL/min/10^6 cells
t1/2 (mouse hepatocytes + ritonavir 4:1) ([19]; compound/ritonavir 4:1): 46.7 min
CLint (mouse hepatocytes) ([19]; without ritonavir): 76.8 μL/min/10^6 cells
t1/2 (mouse hepatocytes) ([19]; without ritonavir): 22.6 min
hCTSL biochemical assay pIC50 [21]: 9.48
selectivity for hCTSL over M^pro [21]: more than 500 fold
mouse plasma protein binding, fraction bound (Fb) [31]: 99.69%
mouse plasma protein binding, fraction unbound (Fu) [31]: 0.31%
hCTSB biochemical assay pIC50 [25]: 6.65
